# Experimental data as given in PMC8233136, “Monomeric bile acids modulate the ATPase activity of detergent-solubilized ABCB4/MDR3” (Journal of Lipid Research, 2021).
# Values joined by “and” are separate entries in the source; they are usually repeats but may differ in a detail not shown here. Equal values may be shown once.
# Legend:
# [1] = Critical micelle concentration by Hoechst 33342 fluorescence in ATPase reaction buffer; assay type: physicochemical; settings: 50 mM Tris-HCl pH 7.5, 100 mM NaCl, 37°C; no FC-16, MgCl2 or ATP
# Experimental: CMC values were determined as described ([61]). […] 96-well plates suitable for fluorescence spectroscopy (Greiner Bio-One, FIA plate, black, flat bottom, medium binding) were used. […] CMCs of the bile acids were determined in ATPase reaction buffer (50 mM Tris-HCl, pH 7.5 (at 37°C), 100 mM NaCl) containing no FC-16, MgCl2, or ATP at 37°C using a Tecan M200 plate reader (Atlantic lab equipment). Bile acids were dissolved either in ddH2O or in 100% DMSO (as stated in “Lipid, cholesterol and bile acid preparation”) at a concentration of 100 mM. […] In case of hydrophobic bile acids, which were dissolved in DMSO, DMSO concentration was adapted to 1% in all wells. […] After background correction, fluorescence data were analyzed using Prism (version 8, GraphPad) with Equation 4:(4) F=Fmax∗(c[BA]−cmc)/(K0.5−cmc)+(c[BA]−cmc)
# The measured fluorescence at each bile acid concentration (c[BA]) is represented by F, while Fmax is the maximal fluorescence, K0.5 is the midpoint of the function, and cmc is the critical micelle concentration of the bile acid.
# human ABCB4 [2] = biological target: T1, human ABCB4 (Homo sapiens, UniProt P21439); experiment: ATP hydrolysis (malachite green) of purified ABCB4 in the presence of 300 μM DOPC (with or without cholesterol); assay type: biochemical; settings: for activity at 1000 µM / Relative ATPase activity in the presence of 300 μM DOPC: 1,000 μM bile acid/detergent/BAM + 300 μM DOPC; for activity at 1000 µM: read-out: Relative ATPase activity in the presence of 300 μM DOPC; for Decrease of DOPC-stimulated ATPase activity: 1,000 μM + 300 μM DOPC, relative to DOPC alone
# T1 construct: made in house; host or cells: Pichia pastoris (chromosomally integrated)
# T1 sequence (P21439 1-1279 isoform P21439-2): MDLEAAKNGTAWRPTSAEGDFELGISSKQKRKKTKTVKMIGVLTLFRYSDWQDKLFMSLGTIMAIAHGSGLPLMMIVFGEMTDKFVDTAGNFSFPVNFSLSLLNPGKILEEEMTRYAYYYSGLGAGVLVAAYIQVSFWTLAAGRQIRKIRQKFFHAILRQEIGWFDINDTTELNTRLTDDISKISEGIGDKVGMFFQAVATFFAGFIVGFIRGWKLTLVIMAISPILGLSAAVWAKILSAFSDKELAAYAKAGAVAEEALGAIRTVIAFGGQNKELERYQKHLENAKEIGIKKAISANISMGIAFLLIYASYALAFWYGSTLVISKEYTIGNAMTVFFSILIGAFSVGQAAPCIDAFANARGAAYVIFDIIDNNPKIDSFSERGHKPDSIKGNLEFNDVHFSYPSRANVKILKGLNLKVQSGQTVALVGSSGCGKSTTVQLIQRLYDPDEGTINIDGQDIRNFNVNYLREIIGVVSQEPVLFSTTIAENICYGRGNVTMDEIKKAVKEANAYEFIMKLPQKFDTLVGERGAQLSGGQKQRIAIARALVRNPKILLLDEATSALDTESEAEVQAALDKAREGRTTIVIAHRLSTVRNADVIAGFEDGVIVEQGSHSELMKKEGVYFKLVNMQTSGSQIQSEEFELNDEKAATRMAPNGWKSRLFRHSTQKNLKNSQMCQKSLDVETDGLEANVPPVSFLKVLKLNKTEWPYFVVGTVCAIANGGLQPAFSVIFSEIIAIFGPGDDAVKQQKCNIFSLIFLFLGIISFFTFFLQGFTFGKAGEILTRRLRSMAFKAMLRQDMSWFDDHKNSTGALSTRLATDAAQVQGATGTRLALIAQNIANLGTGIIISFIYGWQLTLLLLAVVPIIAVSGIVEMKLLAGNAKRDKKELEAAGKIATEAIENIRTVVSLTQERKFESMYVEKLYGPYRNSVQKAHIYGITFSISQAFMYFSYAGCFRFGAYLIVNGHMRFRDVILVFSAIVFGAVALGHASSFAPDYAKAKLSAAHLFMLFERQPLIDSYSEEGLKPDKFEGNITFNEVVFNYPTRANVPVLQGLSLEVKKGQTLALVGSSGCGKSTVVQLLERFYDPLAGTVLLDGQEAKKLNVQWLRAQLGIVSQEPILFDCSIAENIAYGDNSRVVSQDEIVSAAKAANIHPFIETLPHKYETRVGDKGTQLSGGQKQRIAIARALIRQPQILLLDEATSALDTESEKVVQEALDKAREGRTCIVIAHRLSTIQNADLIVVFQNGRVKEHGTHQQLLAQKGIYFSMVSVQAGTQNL
# Experimental: A sample of purified ABCB4 was incubated with 10-fold molar excess of BODIPY® FL maleimide (BODIPY® FL N-(2-aminoethyl)maleimide, Molecular Probes) at 22°C for 20 min. The reaction was quenched after 20 min by addition of a 20-fold molar excess of dithiothreitol (DTT) at 22°C for 10 min. Qualitative labeling efficiency was analyzed by visualizing a sample after SDS-PAGE by UV excitation.
# DOPC was dissolved in chloroform, the solvent was evaporated, and the dried lipid sample was redissolved in ATP hydrolysis reaction buffer (50 mM Tris HCl, pH 7.4 at 37°C, 100 mM NaCl) at a concentration of 25.4 mM following the protocol of Geertsma et al. ([59]). Prior to the addition of the DOPC sample to the ATP hydrolysis assay, it was diluted to 5 mM, sonicated until a clear solution was obtained, and subsequently used at a final concentration of 300 μM. Since chloroform is not suitable for the later ATPase assay and cholesterol at higher concentration is insoluble in water and nearly all solvents, a molar mixture of cholesterol and DOPC was used. This mixture was obtained by adding the required molar ratio of cholesterol to always the same amount of dried DOPC. Afterward, the mixture was treated identical to DOPC only as described above resulting in a final concentration (f.c.) of 300 μM DOPC with 0–1,000 μM cholesterol in the ATPase assay.
# (§1) The sodium salts of conjugated and unconjugated bile acids were dissolved in double-distilled water (ddH2O) or 100% DMSO at a concentration of 100 mM. While glyco-/tauro-/cholic acid (G/T/CA), glyco-/tauro-/chenodeoxycholic acid (G/T/CDCA) were dissolved in ddH2O water, glyco-/tauro-/deoxycholic acid (G/T/DCA), glyco/-tauro-/ursodeoxycholic acid (G/T/UDCA) as wells as Nor-UDCA and taurolithocholic acid (TLCA) were dissolved in DMSO. […] Modulation of the ATP hydrolysis by bile acid was determined in a concentration-dependent manner from 0 to 1,000 μM bile acids.
# (§2) Analysis of the ATP activity of ABCB4 was performed by determining the amount of released, free inorganic orthophosphate by the malachite green assay ([53], [54], [60]) with minor modifications. The assay was performed in a total volume of 100 μl consisting of reaction buffer (50 mM Tris HCl, pH 7.4 at 37°C, 100 mM NaCl) supplemented with the 2.5 × cmc of FC-16 and 10 mM MgCl2. For determining the effect of DOPC, different bile acids or combinations thereof, 1–5 μL of the corresponding stock solutions (see lipid and bile acid preparation) were added. Five micrograms of ABCB4 or the BODIPY®-labeled sample was used in every reaction sample. Reaction was started by addition of ATP (5 mM f.c.) and performed for 40 min at 37°C. After 0 and 40 min, the reaction was stopped by transferring 25 μl of the reaction mixture into a 96-well plate containing 175 μl of 20 mM ice-cold sulfuric acid. Additionally, a phosphate standard with concentrations raging from 0 to 500 μM was used. Subsequently, inorganic phosphate was stained by adding 50 μl of dye (0.096% (w/v) malachite green, 1.48% (w/v) ammonium molybdate, 0.173% (w/v) Tween-20, and […] sulfuric acid). After incubation for 15 min, the absorption at 595 nm was measured (iMark™ Microplate Reader, BioRad), and the concentrations of phosphate release were calculated based on the slope of the line calculated based on the phosphate standards.
# (§3) Basal ATPase activity of ABCB4 was set to 0% and the effect of supplements was calculated as % stimulation or % inhibition of the basal activity, respectively. For determination of kinetic parameters, bile acid concentration was varied and analyzed according to an allosteric sigmoidal fit (Equation 1):(1) v=vmax∗[S]^h/EC50h+[S]^h
# human ABCB4 [3] = biological target: T1, human ABCB4; experiment: ATP hydrolysis (malachite green) of detergent-solubilized, purified ABCB4: modulation of basal ATPase activity; assay type: biochemical; settings: for Slope: Hill coefficient of allosteric sigmoidal fit of ATPase stimulation; for EC50: stimulation of basal ATPase activity, allosteric sigmoidal fit; for EC50 / Emax / Concentration at which maximal stimulation (plateau) of ATPase activity is reached / Max. Stimulation (%): 0-1,000 μM; for Emax / Max. Stimulation (%): basal ABCB4 ATPase activity set to 0%; for Concentration at which maximal stimulation (plateau) of ATPase activity is reached: basal ATPase activity
# Experimental: as §1, §2, §3
# Here, v describes the stimulation (%), vmax is the maximal stimulation (%), EC50 represents the half maximal effective concentration, S is the substrate concentration, and h is the Hill coefficient
# In case of inhibition, the reduction (%) was plotted against the bile acid concentration and data were analyzed using Equation 2:(2) y=ymin+(ymax−ymin)/1+10^((logIC50−x)∗slope)
# Here, ymax is the smallest, and ymin is the highest amount of inhibition, respectively, and x represents the concentration of the inhibitor. The IC50 value is defined as the concentration necessary to obtain 50% inhibition.
# In case of both substrate stimulations, followed by substrate inhibition after maximal stimulation was reached, the modulation (%) was plotted against the substrate concertation and data was analyzed using by two fits: First part (stimulation) was as usually fitted using Equation 1. The second part (substrate inhibition) was analyzed by Equation 3 starting at the last point of the plateau:(3) y=ymin+[…]/(1+x/IC50)
# Here, ymax is the highest value of the plateau after stimulation is reached, while ymin is the smallest value of y after maximal stimulation was reached.
# [4] = vmax of allosteric sigmoidal fit (Equation 1), read-out: Max. Stimulation (%)
# [5] = basal = 0%, negative = inhibition, duplicates
# [6] = vmax of allosteric sigmoidal fit (Equation 1)
SMILES,Critical micelle concentration (cmc) [1],activity at 1000 µM (human ABCB4 [2]; DOPC alone set to 100%) [%],Slope (human ABCB4 [3]),EC50 (human ABCB4 [3]; read-out: EC50) [µM],Emax (human ABCB4 [3]; [4]) [%],further results
"C[C@H](CCC(=O)O)[C@H]1CC[C@H]2[C@@H]3[C@H](O)C[C@@H]4C[C@H](O)CC[C@]4(C)[C@H]3CC[C@]12C [CDCA, chenodeoxycholic acid]",1.5 mM and 1.5 ± 0.1 mM,89.7 ± 1.4,1.8 ± 0.4,308 ± 56.8,137 ± 16.8,
"C[C@H](CCC(=O)O)[C@H]1CC[C@H]2[C@@H]3[C@@H](O)C[C@@H]4C[C@H](O)CC[C@]4(C)[C@H]3CC[C@]12C [UDCA, Ursodeoxycholic acid]",1.3 mM and 1.3 ± 0.1 mM,115 ± 22.1,4.6 ± 1.3,470 ± 34.5,110 ± 10.7,
"C[C@H](CC(=O)O)[C@H]1CC[C@H]2[C@@H]3[C@@H](O)C[C@@H]4C[C@H](O)CC[C@]4(C)[C@H]3CC[C@]12C [Nor-UDCA, 24-nor-ursodeoxycholic acid]",1.8 mM and 1.8 ± 0.1 mM,373 ± 30,6.3 ± 1.3,476 ± 18.5,195 ± 10.8,"ATPase activity in the presence of cholesterol:DOPC 1.5:1 (human ABCB4 [2]; 1,000 μM BAM or Nor-UDCA added to cholesterol:DOPC (1.5:1, 300 μM DOPC), DOPC alone set to 100%): 380.7 ± 45.6%; Increase of ATPase activity compared with UDCA (human ABCB4 [3]; maximal stimulation, side chain shortened by one carbon atom): approximately 85%"
"C[C@H](CCC(=O)NCCS(=O)(=O)O)[C@H]1CC[C@H]2[C@@H]3[C@H](O)C[C@@H]4C[C@H](O)CC[C@]4(C)[C@H]3C[C@H](O)[C@]12C [TCA, taurocholic acid]",3.5 mM and 3.5 ± 0.1 mM,,2.6 ± 0.5,,,"EC50 (human ABCB4 [3]; EC50 (μM)): 114 µM; Concentration at which maximal stimulation (plateau) of ATPase activity is reached (human ABCB4 [3]): approximately 400 μM; Emax (human ABCB4 [3]; read-out: Max. Stimulation (%), vmax of allosteric sigmoidal fit (Equation 1)): 539 ± 24%"
"C[C@H](CCC(=O)NCCC[N+](C)(C)CC(O)CS(=O)(=O)[O-])[C@H]1CC[C@H]2[C@@H]3[C@H](O)C[C@@H]4C[C@H](O)CC[C@]4(C)[C@H]3C[C@H](O)[C@]12C (stereo partly drawn) [CHAPSO, 3-[(3-cholamidopropyl)dimethylammonio]-2-hydroxy-1-propanesulfonate]",,,4.3 ± 2.5,125 ± 23.3,,Decrease of DOPC-stimulated ATPase activity (human ABCB4 [2]): approximately 50%; Relative ATPase activity in the presence of 300 μM DOPC (human ABCB4 [2]; DOPC alone set to 100%): 48.7 ± 3.0%; Modulation of basal ATPase activity at 10 μM (human ABCB4 [3]; [5]): –7.5 ± 8.6%; Concentration at which maximal stimulation (plateau) of ATPase activity is reached (human ABCB4 [3]): 300 µM; Max. Stimulation (%) (human ABCB4 [3]; [6]): 145.4 ± 15.3%
C[C@H](CCC(=O)NCC(=O)O)[C@H]1CC[C@H]2[C@@H]3CC[C@@H]4C[C@H](O)CC[C@]4(C)[C@H]3C[C@H](O)[C@]12C [GDCA],2.0 mM and 2.0 ± 0.1 mM,156 ± 8.9,5.9 ± 1.2,47.9 ± 1.5,259 ± 5,
C[C@H](CCC(=O)NCC(=O)O)[C@H]1CC[C@H]2[C@@H]3[C@@H](O)C[C@@H]4C[C@H](O)CC[C@]4(C)[C@H]3CC[C@]12C [GUDCA],1.6 mM and 1.6 ± 0.1 mM,111 ± 3.1,4.5 ± 1.0,393,185 ± 13,
"C[C@H](CCC(=O)NCCC[N+](C)(C)CCCS(=O)(=O)[O-])[C@H]1CC[C@H]2[C@@H]3[C@H](O)C[C@@H]4C[C@H](O)CC[C@]4(C)[C@H]3C[C@H](O)[C@]12C [CHAPS, 3-[(3-cholamidopropyl)dimethylammonio]-1-propanesulfonate]",,,3.7 ± 2.1,151 ± 20.8,,"Decrease of DOPC-stimulated ATPase activity (human ABCB4 [2]): approximately 50%; Relative ATPase activity in the presence of 300 μM DOPC (human ABCB4 [2]; DOPC alone set to 100%): 52.6 ± 6.5%; Modulation of basal ATPase activity at 10 μM (human ABCB4 [3]; [5]): –7.1 ± 3.6%; Modulation of basal ATPase activity at 50 μM (human ABCB4 [3]; 50 μM, basal = 0%, negative = inhibition, duplicates): –9.9 ± 5.0%; Concentration at which maximal stimulation (plateau) of ATPase activity is reached (human ABCB4 [3]): 300 µM; Max. Stimulation (%) (human ABCB4 [3]; [6]): 142.6 ± 11.5%"
CC(C)CCC[C@@H](C)[C@H]1CC[C@H]2[C@@H]3CC=C4C[C@@H](O)CC[C@]4(C)[C@H]3CC[C@]12C [Cholesterol],,,,,,"ATPase activity at cholesterol:DOPC ratio 1.5:1 (human ABCB4 [2]; 300 μM DOPC, DOPC alone set to 100%): 190.4 ± 9.4%; Emax (human ABCB4 [2]; 300 μM DOPC, DOPC alone set to 100%, cholesterol:DOPC ratios 1-2, read-out: Maximal stimulation of ATPase activity by cholesterol (vmax)): 204 ± 5.9%; ATPase activity at cholesterol:DOPC molar ratio 0.04 (human ABCB4 [2]; 300 μM DOPC, DOPC alone set to 100%, considered no stimulation): 119%; EC50 (human ABCB4 [2]; cholesterol mixed with 300 μM DOPC, molar ratios 0-3.3 (cholesterol to DOPC)): 210 µM; Slope (human ABCB4 [2]; cholesterol mixed with 300 μM DOPC, allosteric sigmoidal fit): 7.8 ± 2.2; Max. Stimulation (%) (human ABCB4 [2]; cholesterol mixed with 300 μM DOPC, stimulation in addition to DOPC stimulation): 103.5 ± 5.9%"
"CCCCCCCC/C=C\CCCCCCCC(=O)OC[C@H](COP(=O)([O-])OCC[N+](C)(C)C)OC(=O)CCCCCCC/C=C\CCCCCCCC [DOPC, 1,2-dioleoyl-sn-glycero-3-phosphocholine]",,,,,,"ATPase activity of nonlabeled protein (human ABCB4 [2]; presence of 300 μM DOPC, 5 μg protein): 488.6 ± 44.5 nmol/min/mg; Specific ATPase activity of ABCB4 (Bodipy-labeled activity subtracted) (human ABCB4 [2]; presence of 300 μM DOPC, basal 132.1 ± 13.0): 275.8 ± 24.8 nmol/min/mg; ATPase activity of ABCB4-Bodipy (Bodipy-labeled protein) (human ABCB4 [2]; with 300 μM DOPC, non-ABCB4-mediated background): 212.8 ± 19.7 nmol/min/mg"
"C[C@H](CCC(=O)O)[C@H]1CC[C@H]2[C@@H]3CC[C@@H]4C[C@H](O)CC[C@]4(C)[C@H]3CC[C@]12C [LCA, lithocholic acid]",Precipitate ^a,,,,,
